{
  "source": "ChEMBL document CHEMBL5325398",
  "about": "“Design of Cytochrome P450 1B1 Inhibitors via a Scaffold-Hopping Approach” (J Med Chem, 2023)",
  "key": {"[1]": {"target": "T1, Cytochrome P450 1A1 (Homo sapiens, UniProt P04798)", "T1 sequence (P04798 whole entry)": "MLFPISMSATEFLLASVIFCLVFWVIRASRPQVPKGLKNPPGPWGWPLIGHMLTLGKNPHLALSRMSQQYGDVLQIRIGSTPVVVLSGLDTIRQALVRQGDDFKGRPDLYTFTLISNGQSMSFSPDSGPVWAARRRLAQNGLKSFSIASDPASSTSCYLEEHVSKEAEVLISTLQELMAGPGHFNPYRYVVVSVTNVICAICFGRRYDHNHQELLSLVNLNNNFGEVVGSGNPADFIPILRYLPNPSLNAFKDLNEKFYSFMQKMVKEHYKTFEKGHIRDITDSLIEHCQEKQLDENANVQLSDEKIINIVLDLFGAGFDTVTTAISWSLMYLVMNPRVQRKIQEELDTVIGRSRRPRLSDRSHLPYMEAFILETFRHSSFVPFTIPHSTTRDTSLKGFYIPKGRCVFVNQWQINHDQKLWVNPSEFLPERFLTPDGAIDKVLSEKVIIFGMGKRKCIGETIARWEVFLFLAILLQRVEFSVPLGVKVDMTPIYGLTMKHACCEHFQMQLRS", "assay": "Inhibition of CYP1A1 (unknown origin) expressed in HEK293-T-REx cells co-expressing POR incubated for 1 hr by resorufin dye based plate reader analysis", "format": "ADME, cell-based"}, "[2]": {"target": "T2, Cytochrome P450 1B1 (Homo sapiens, UniProt Q16678)", "T2 sequence (Q16678 whole entry)": "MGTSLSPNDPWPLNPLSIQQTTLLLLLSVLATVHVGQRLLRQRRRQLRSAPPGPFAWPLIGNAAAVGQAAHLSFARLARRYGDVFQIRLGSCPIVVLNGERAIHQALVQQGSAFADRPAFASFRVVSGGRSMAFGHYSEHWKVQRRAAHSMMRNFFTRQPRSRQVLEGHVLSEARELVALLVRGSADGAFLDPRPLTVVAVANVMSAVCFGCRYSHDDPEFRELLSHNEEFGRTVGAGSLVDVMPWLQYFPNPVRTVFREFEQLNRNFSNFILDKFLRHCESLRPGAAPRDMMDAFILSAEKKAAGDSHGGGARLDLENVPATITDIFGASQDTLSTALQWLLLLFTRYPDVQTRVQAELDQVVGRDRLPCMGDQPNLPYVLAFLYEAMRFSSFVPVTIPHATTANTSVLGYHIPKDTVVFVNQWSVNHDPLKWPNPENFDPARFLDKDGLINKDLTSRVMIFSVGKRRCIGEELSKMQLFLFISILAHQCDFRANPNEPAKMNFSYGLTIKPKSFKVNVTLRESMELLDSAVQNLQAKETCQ", "assay": "Inhibition of CYP1B1 (unknown origin) expressed in HEK293-T-REx cells co-expressing POR incubated for 1 hr by resorufin dye based plate reader analysis", "format": "ADME, cell-based"}, "[3]": {"system": "CYP1A1 versus CYP1B1", "assay": "Selectivity index, ratio of IC50 for CYP1A1 (unknown origin) to IC50 for CYP1B1 (unknown origin)", "conditions": "read-out: Ratio IC50; call rule not given here"}, "[4]": {"target": "Cytochrome P450 1B1 (Homo sapiens, UniProt Q16678, S127C)", "sequence (Q16678 whole entry S127C)": "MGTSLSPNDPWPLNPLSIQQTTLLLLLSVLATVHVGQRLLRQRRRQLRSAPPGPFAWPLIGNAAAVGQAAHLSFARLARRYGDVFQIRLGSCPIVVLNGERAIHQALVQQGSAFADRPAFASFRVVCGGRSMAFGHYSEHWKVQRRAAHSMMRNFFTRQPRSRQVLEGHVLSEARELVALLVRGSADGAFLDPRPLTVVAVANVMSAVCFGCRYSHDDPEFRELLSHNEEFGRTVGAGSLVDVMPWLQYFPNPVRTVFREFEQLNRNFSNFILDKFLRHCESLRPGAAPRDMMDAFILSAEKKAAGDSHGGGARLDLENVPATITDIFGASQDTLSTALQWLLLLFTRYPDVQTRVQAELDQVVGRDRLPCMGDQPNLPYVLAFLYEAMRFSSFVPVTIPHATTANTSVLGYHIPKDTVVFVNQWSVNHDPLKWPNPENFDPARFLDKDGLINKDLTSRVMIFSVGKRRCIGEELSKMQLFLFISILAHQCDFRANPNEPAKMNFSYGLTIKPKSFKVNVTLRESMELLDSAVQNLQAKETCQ", "assay": "Inhibition of CYP1B1 S127C mutant (unknown origin) expressed in HEK293-T-REx cells", "format": "ADME, cell-based"}, "[5]": {"assay": "Cytotoxicity against HEK293-T-REx cells assessed as reduction in cell viability measured after 72 hrs by resazurin dye based analysis", "format": "toxicity, Homo sapiens", "conditions": "for IC50: hek293-t-rex; for IC50 at 72 h: human, HEK293-T-REx cells"}, "[6]": {"target": "Cytochrome P450 1B1 (Homo sapiens, UniProt Q16678, T334V)", "sequence (Q16678 whole entry T334V)": "as the sequence (Q16678 whole entry S127C) above, with C127S, T334V counted along it", "assay": "Inhibition of CYP1B1 T334V mutant (unknown origin) expressed in HEK293-T-REx cells", "format": "ADME, cell-based"}, "[7]": {"target": "Cytochrome P450 1B1 (Homo sapiens, UniProt Q16678, T510V)", "sequence (Q16678 whole entry T510V)": "as the sequence (Q16678 whole entry S127C) above, with C127S, T510V counted along it", "assay": "Inhibition of CYP1B1 T510V mutant (unknown origin) expressed in HEK293-T-REx cells", "format": "ADME, cell-based"}, "[8]": {"target": "T2, Cytochrome P450 1B1", "assay": "Binding affinity to N-terminal human microsomal CYP1B1 expressed in Escherichia coli assessed as spectral dissociation constant by absorbance based analysis"}, "[9]": {"assay": "in vitro", "conditions": "rat, liver"}, "[10]": {"assay": "in vitro", "conditions": "mouse, liver"}, "[11]": {"assay": "in vitro", "conditions": "human, liver"}},
  "data": [
    {"smiles": "COc1ccc(OC)c2c1c(OC)cc1c(=O)cc(-c3cccc(F)c3)oc12", "values": [
      {"measurement": "IC50", "setting": "[1]", "result": 0.012, "unit": "µM"}
    ]},
    {"smiles": "C#C[C@]1(O)CC[C@H]2[C@@H]3CCc4cc(O)c(-c5ccc(OC)cc5)cc4[C@H]3CC[C@@]21C", "values": [
      {"measurement": "IC50", "setting": "[2]", "result": 0.37, "unit": "µM"},
      {"measurement": "selectivity ratio", "setting": "[3]", "result": 25},
      {"measurement": "IC50", "setting": "[1]", "result": 9.2, "unit": "µM"}
    ]},
    {"smiles": "COc1cc(/C=C/c2ccc(OC)cc2OC)cc(OC)c1", "values": [
      {"measurement": "inhibition (INH)", "setting": "[4]", "result": "Active"},
      {"measurement": "IC50", "setting": "[5]", "result": 1.3, "unit": "µM"},
      {"measurement": "inhibition (INH)", "setting": "[6]", "result": "Not Active"},
      {"measurement": "inhibition (INH)", "setting": "[7]", "result": "Not Active"}
    ]},
    {"smiles": "COc1ccc(-c2nc(-c3ccc(C#N)cc3)cs2)c(OC)c1", "values": [
      {"measurement": "IC50", "setting": "[5]", "result": "> 100", "unit": "µM"},
      {"measurement": "inhibition (INH)", "setting": "[6]", "result": "Not Active"},
      {"measurement": "inhibition (INH)", "setting": "[7]", "result": "Not Active"}
    ]},
    {"smiles": "COc1cc(OC)cc(-c2cccc(-c3cc(OC)cc(OC)c3)c2)c1", "values": [
      {"measurement": "IC50", "setting": "[5]", "result": 4.18, "unit": "µM"}
    ]},
    {"smiles": "COc1ccc(-c2nc(-c3ccc(F)cc3)cs2)c(OC)c1", "values": [
      {"measurement": "IC50", "setting": "[5]", "result": 51.4, "unit": "µM"}
    ]},
    {"smiles": "COc1ccc(/C=C/c2ccncc2)c(OC)c1", "values": [
      {"measurement": "IC50", "setting": "[1]", "result": 4.57, "unit": "µM"}
    ]},
    {"smiles": "COc1cc(OC)cc(-c2cncc(-c3cc(OC)cc(OC)c3)c2)c1", "values": [
      {"measurement": "IC50", "setting": "[5]", "result": 0.18, "unit": "µM"}
    ]},
    {"smiles": "COc1cc(OC)cc(-c2csc(-c3cc(OC)cc(OC)c3)n2)c1", "values": [
      {"measurement": "IC50 at 72 h", "setting": "[5]", "result": 10, "unit": "µM"}
    ]},
    {"smiles": "COc1ccc(-c2nc(-c3ccc(O)cc3)cs2)c(OC)c1", "values": [
      {"measurement": "IC50", "setting": "[2]", "result": 0.6, "unit": "µM"},
      {"measurement": "IC50", "setting": "[5]", "result": 3.4, "unit": "µM"},
      {"measurement": "Kd", "setting": "[8]", "result": 0.35, "unit": "µM"}
    ]},
    {"smiles": "COc1ccc(-c2nc(-c3cccnc3)cs2)c(OC)c1", "values": [
      {"measurement": "IC50", "setting": "[5]", "result": 26.7, "unit": "µM"}
    ]},
    {"smiles": "COc1ccc(-c2cccc(-c3ccc(OC)cc3OC)c2)c(OC)c1", "values": [
      {"measurement": "IC50", "setting": "[5]", "result": 1.62, "unit": "µM"}
    ]},
    {"smiles": "COc1ccc(-c2csc(-c3ccc(OC)cc3OC)n2)c(OC)c1", "values": [
      {"measurement": "IC50", "setting": "[5]", "result": "~100", "unit": "µM"}
    ]},
    {"smiles": "COc1cc(OC)cc(-c2ccnc(-c3cc(OC)cc(OC)c3)n2)c1", "values": [
      {"measurement": "IC50 at 72 h", "setting": "[5]", "result": 10, "unit": "µM"}
    ]},
    {"smiles": "COc1ccc(-c2csc(-c3ccc(OC)cc3OC)n2)cc1", "values": [
      {"measurement": "IC50", "setting": "[5]", "result": "> 100", "unit": "µM"}
    ]},
    {"smiles": "COc1cc(OC)cc(-c2ccc(-c3cc(OC)cc(OC)c3)s2)c1", "values": [
      {"measurement": "IC50", "setting": "[5]", "result": "> 10", "unit": "µM"}
    ]},
    {"smiles": "COc1cc(OC)cc(-c2cc(-c3cc(OC)cc(OC)c3)ncn2)c1", "values": [
      {"measurement": "IC50", "setting": "[5]", "result": 10, "unit": "µM"}
    ]},
    {"smiles": "O=c1cc(-c2ccccc2)oc2c1ccc1ccccc12", "note": "[ALPHA-NAPHTHOFLAVONE]", "values": [
      {"measurement": "inhibition (INH)", "setting": "[4]", "result": "Active"},
      {"measurement": "IC50", "setting": "[5]", "result": 14.8, "unit": "µM"},
      {"measurement": "inhibition (INH)", "setting": "[6]", "result": "Not Active"},
      {"measurement": "inhibition (INH)", "setting": "[7]", "result": "Active"}
    ]},
    {"smiles": "O=C(O)Cc1ccccc1Nc1c(Cl)cccc1Cl", "note": "[DICLOFENAC]", "values": [
      {"measurement": "CLint scaled at 100 µM", "setting": "[9]", "result": 142, "unit": "mL/min/kg"},
      {"measurement": "CLint scaled at 100 µM", "setting": "[10]", "result": 178, "unit": "mL/min/kg"},
      {"measurement": "CLint scaled at 100 µM", "setting": "[11]", "result": 324, "unit": "mL/min/kg"}
    ]}
  ]
}
